Laboratory results: patent publication US4330552A, “Antiinflammatory 4,5-diaryl-2-arylthioimidazoles” (E. I. Du Pont de Nemours and Company, priority 1980, dated 1982)

System: adjuvant-induced arthritis in rats
Experiment: Established Adjuvant-Induced Arthritis in Rats (paw volume reduction)
Format: in vivo, Lewis (Wistar) male rats
Settings: oral gavage once daily for 7 days (days 14-20), paw volume on day 21; for ED50: Rattus norvegicus, estimated from dose-response regression lines by inspection, read-out: Adjuvant Arthritis ED50 (50% decrease from control paw volume)

SMILES: COc1ccc(-c2nc(Sc3ccc(Cl)cc3)[nH]c2-c2ccc(OC)cc2)cc1 [Example 1, 4,5-Bis(4-methoxyphenyl)-2-(4-chlorophenylthio)-1H-imidazole]
- ED50: 10 mg/kg

SMILES: COc1ccc(-c2nc(Sc3ccccc3)[nH]c2-c2ccc(OC)cc2)cc1 [Example 2]
- percent paw volume reduction at the dose indicated (25 mg/kg): 32%
- percent paw volume reduction at the dose indicated (50 mg/kg): 28%
- percent paw volume reduction at the dose indicated (100 mg/kg): 32%

SMILES: COc1ccc(-c2nc(Sc3ccc(F)cc3)[nH]c2-c2ccc(OC)cc2)cc1 [Example 3]
- percent paw volume reduction at the dose indicated (25 mg/kg): 35%

SMILES: COc1ccc(Sc2nc(-c3ccc(OC)cc3)c(-c3ccc(OC)cc3)[nH]2)cc1 [Example 4]
- ED50: 13 mg/kg

SMILES: COc1ccc(-c2nc(S(=O)(=O)c3ccc(Cl)cc3)[nH]c2-c2ccc(OC)cc2)cc1 [Example 5, 4,5-Bis(4-methoxyphenyl)-2-(4-chlorophenylsulfonyl)-1H-imidazole]
- percent paw volume reduction at the dose indicated (25 mg/kg): 31%

SMILES: COc1ccc(-c2nc(S(=O)(=O)c3ccccc3)[nH]c2-c2ccc(OC)cc2)cc1 [Example 6]
- ED50: 58 mg/kg

SMILES: COc1ccc(-c2nc(S(=O)(=O)c3ccc(F)cc3)[nH]c2-c2ccc(OC)cc2)cc1 [Example 7]
- percent paw volume reduction at the dose indicated (27 mg/kg): 0%

SMILES: COc1ccc(-c2nc(S(=O)(=O)c3ccc(OC)cc3)[nH]c2-c2ccc(OC)cc2)cc1 [Example 8]
- percent paw volume reduction at the dose indicated (25 mg/kg): 16%
